pIC50: −log10 of the molar value.
System: 743489-274-T-PDC complex spheroid viability
Experiment: Anticancer human tumor 743489-274-T-PDC patient-derived renal cell carcinoma cell line growth inhibition
Settings: for pIC50: curve of first compound; for viability, T/C: stronger effect = lower value
Method in brief: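 Multicellular complex spheroids of tumor cells with human endothelial cells (HUVEC) and mesenchymal stem cells; the LSD1 inhibitor iadademstat was combined with standard-of-care or investigational agents. Top concentration at or near clinical Cmax, half-log dilutions; final DMSO ≤0.25%.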

[1] = second compound 0.1 µM, first compound 0.000316 µM
[2] = second compound 0.1 µM, first compound 0.001 µM
[3] = second compound 0.1 µM, first compound 0.00316 µM
[4] = second compound 0.1 µM, first compound 0.01 µM
[5] = second compound 0.1 µM, first compound 0.0316 µM
[6] = second compound 0.1 µM, first compound 0.1 µM
[7] = second compound 0.316 µM, first compound 0.000316 µM
[8] = second compound 0.316 µM, first compound 0.001 µM
[9] = second compound 0.316 µM, first compound 0.00316 µM
[10] = second compound 0.316 µM, first compound 0.01 µM
[11] = second compound 0.316 µM, first compound 0.0316 µM
[12] = second compound 0.316 µM, first compound 0.1 µM
[13] = second compound 1 µM, first compound 0.000316 µM
[14] = second compound 1 µM, first compound 0.001 µM
[15] = second compound 1 µM, first compound 0.00316 µM
[16] = second compound 1 µM, first compound 0.01 µM
[17] = second compound 1 µM, first compound 0.0316 µM
[18] = second compound 1 µM, first compound 0.1 µM
[19] = second compound 3.16 µM, first compound 0.000316 µM
[20] = second compound 3.16 µM, first compound 0.001 µM
[21] = second compound 3.16 µM, first compound 0.00316 µM
[22] = second compound 3.16 µM, first compound 0.01 µM
[23] = second compound 3.16 µM, first compound 0.0316 µM
[24] = second compound 3.16 µM, first compound 0.1 µM
[25] = second compound 10 µM, first compound 0.000316 µM
[26] = second compound 10 µM, first compound 0.001 µM
[27] = second compound 10 µM, first compound 0.00316 µM
[28] = second compound 10 µM, first compound 0.01 µM
[29] = second compound 10 µM, first compound 0.0316 µM
[30] = second compound 10 µM, first compound 0.1 µM
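Also: spheroids exposed to compounds for 7 days before readout.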
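For viability, T/C in this document: 100% = DMSO vehicle control wells.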

Compound	pIC50 (second compound 0.1 µM)	pIC50 (second compound 0.316 µM)	pIC50 (second compound 1 µM)	pIC50 (second compound 3.16 µM)	pIC50 (second compound 10 µM)	viability, T/C [3]	viability, T/C [4]	viability, T/C [5]	viability, T/C [6]	viability, T/C [9]	viability, T/C [10]	viability, T/C [11]	viability, T/C [12]	viability, T/C [15]	viability, T/C [16]	viability, T/C [17]	viability, T/C [18]	viability, T/C [21]	viability, T/C [22]	viability, T/C [23]	further results
CC(C)CC(NC(=O)C(Cc1ccccc1)NC(=O)c1cnccn1)B(O)O (stereo not given) + NC1CCC(NC2CC2c2ccccc2)CC1	8.12	8.10	8.13	8.07	8.09	121%	33.7%	29.6%	30.3%	115%	33.4%	19.1%	26.7%	113%	36.8%	23.7%	28.1%	113%	40.3%	22.3%	viability, T/C [1]: 115%; viability, T/C [2]: 100%; viability, T/C [7]: 119%; viability, T/C [8]: 109%; viability, T/C [13]: 100%; viability, T/C [14]: 108%; viability, T/C [19]: 122%; viability, T/C [20]: 103%; viability, T/C [24]: 38.3%; viability, T/C [25]: 117%; viability, T/C [26]: 119%; viability, T/C [27]: 123%; viability, T/C [28]: 35.8%; viability, T/C [29]: 22.1%; viability, T/C [30]: 35.5%
CC(C)CC(NC(=O)CNC(=O)c1cc(Cl)ccc1Cl)B1OC(=O)CC(CC(=O)O)(C(=O)O)O1 (stereo not given) + NC1CCC(NC2CC2c2ccccc2)CC1	< 7.00	7.03	< 7.00	< 7.00	7.06	109%	80.4%	72.6%	60.7%	108%	80.5%	79.8%	46.6%	108%	98.1%	78.4%	51.9%	105%	89.1%	92.6%	viability, T/C [1]: 95.9%; viability, T/C [2]: 105%; viability, T/C [7]: 119%; viability, T/C [8]: 123%; viability, T/C [13]: 120%; viability, T/C [14]: 120%; viability, T/C [19]: 104%; viability, T/C [20]: 113%; viability, T/C [24]: 48.9%; viability, T/C [25]: 134%; viability, T/C [26]: 107%; viability, T/C [27]: 100%; viability, T/C [28]: 100%; viability, T/C [29]: 76.6%; viability, T/C [30]: 43.9%
COc1cc(Nc2ncc3c(n2)-c2ccc(Cl)cc2C(c2c(F)cccc2OC)=NC3)ccc1C(=O)O + NC1CCC(NC2CC2c2ccccc2)CC1	< 6.00	< 6.00	< 6.00	< 6.00	< 6.00	104%	104%	92.6%	86.2%	100%	96%	103%	82.5%	104%	105%	88.8%	86.6%	92.6%	100%	100%	viability, T/C (second compound 0.1 µM, first compound 0.316 µM): 90.3%; viability, T/C (second compound 0.1 µM, first compound 1 µM): 82.2%; viability, T/C (second compound 0.316 µM, first compound 0.316 µM): 89.7%; viability, T/C (second compound 0.316 µM, first compound 1 µM): 85%; viability, T/C (second compound 1 µM, first compound 0.316 µM): 92.5%; viability, T/C (second compound 1 µM, first compound 1 µM): 97.2%; viability, T/C [24]: 79.4%; viability, T/C (second compound 3.16 µM, first compound 0.316 µM): 104%; viability, T/C (second compound 3.16 µM, first compound 1 µM): 97.2%; viability, T/C [27]: 102%; viability, T/C [28]: 111%; viability, T/C [29]: 105%; viability, T/C [30]: 99.2%; viability, T/C (second compound 10 µM, first compound 0.316 µM): 102%; viability, T/C (second compound 10 µM, first compound 1 µM): 93.8%
